According to patent publication US12052991B2, “Substituted pyridinyloxybenzenes and salts thereof and use thereof as herbicidal agents” (Bayer Aktiengesellschaft, priority 2018, dated 2024):

What was measured:
Assay type in all cases: in vivo
Stellaria media (STEME) [1] = assay: Herbicidal pre-emergence action, test C (Table C8); conditions: visual scoring after about 3 weeks, 100% = plants have died, 0% = like control plants
Excerpt: (§1) Seeds of mono- and dicotyledonous weed plants were placed in plastic pots in sandy loam soil (doubly sown with one species each of mono- or dicotyledonous weed plants per pot) and covered with soil. The compounds of the invention, formulated in the form of wettable powders (WP) or as emulsion concentrates (EC), were then applied onto the surface of the covering soil as aqueous suspension or emulsion with addition of 0.5% additive at a water application rate of 600 liters per hectare (converted). After the treatment, the pots were placed in a greenhouse and kept under good growth conditions for the test plants. After about 3 weeks, the effect of the preparations was scored visually in comparison with untreated controls as percentages. For example, 100% activity=the plants have died, 0% activity=like control plants. Tables C1 to C12 below show the effects of selected compounds of the general formula (I) according to Table 1 on various harmful plants and an application rate corresponding to 1280 or 320 g/ha, which were obtained by the experimental procedure mentioned above.

Veronica persica (VERPE) [2] = assay: Herbicidal post-emergence action (Table B12); conditions: visual rating about 3 weeks after treatment, 100% = plants have died, 0% = like control plants
Description: (§2) Seeds of mono- and dicotyledonous weed plants were placed in plastic pots in sandy loam soil (doubly sown with in each case one species of mono- or dicotyledonous weed plants per pot), covered with soil and cultivated in a greenhouse under controlled growth conditions. 2 to 3 weeks after sowing, the test plants were treated at the one-leaf stage. The compounds of the invention, formulated in the form of wettable powders (WP) or as emulsion concentrates (EC), were applied onto the green parts of the plants as aqueous suspension or emulsion with addition of 0.5% additive at a water application rate of 600 liters per hectare (converted). After the test plants had been kept in the greenhouse under optimum growth conditions for about 3 weeks, the activity of the preparations was rated visually in comparison to untreated controls. For example, 100% activity=the plants have died, 0% activity=like control plants. Tables B1 to B12 below show the effects of selected compounds of the general formula (I) according to Table 1 on various harmful plants and an application rate corresponding to 1280 or 320 g/ha, which were obtained by the experimental procedure mentioned above.

Poa annua (POAAN) [3] = assay: Herbicidal pre-emergence action, test C (Table C3); conditions: dosage 1280 g/ha; visual scoring after about 3 weeks; 100% = plants have died, 0% = like control plants
Excerpt: as §1

[4] = test system: harmful plants ABUTH, AMARE, ECHCG, LOLRI, MATIN, POAAN, SETVI, STEME, ALOMY, DIGSA, KCHSC and VERPE; assay: Herbicidal post-emergence action, summary of Tables B1-B12; conditions: application rate of 1280 or 320 g of active ingredient per hectare; summary in words
Description: as §2, with “controls.” for “controls. For example, 100% activity=the plants have died, 0% activity=like control plants. Tables B1 to B12 below show the effects of selected compounds of the general formula (I) according to Table 1 on various harmful plants and an application rate corresponding to 1280 or 320 g/ha, which were obtained by the experimental procedure mentioned above.”
(§3) For example, 100% activity=the plants have died, 0% activity=like control plants.
Tables B1 to B12 below show the effects of selected compounds of the general formula (I) according to Table 1 on various harmful plants and an application rate corresponding to 1280 or 320 g/ha, which were obtained by the experimental procedure mentioned above.
As the results of Tables B1-B12 show, compounds no.

Veronica persica (VERPE) [5] = assay: Herbicidal pre-emergence action, test C (Table C12); conditions: dosage 1280 g/ha, visual scoring vs untreated controls
Excerpt: as §1

[6] = test system: Abutilon theophrasti (ABUTH); assay: Herbicidal pre-emergence action, test C (Table C5); conditions: dosage 1280 g/ha; visual scoring after about 3 weeks; 100% = plants have died, 0% = like control plants
Excerpt: as §1

[7] = test system: harmful plants ABUTH, AMARE, ECHCG, LOLRI, MATIN, POAAN, SETVI, STEME, ALOMY, DIGSA, KCHSC and VERPE; assay: Herbicidal pre-emergence action (test C), summary of Tables C1-C12; conditions: application rate of 1280 or 320 g of active ingredient per hectare; summary in words
Excerpt: as §1, with “percentages.” for “percentages. For example, 100% activity=the plants have died, 0% activity=like control plants. Tables C1 to C12 below show the effects of selected compounds of the general formula (I) according to Table 1 on various harmful plants and an application rate corresponding to 1280 or 320 g/ha, which were obtained by the experimental procedure mentioned above.”
as §3
Tables C1 to C12 below show the effects of selected compounds of the general formula (I) according to Table 1 on various harmful plants and an application rate corresponding to 1280 or 320 g/ha, which were obtained by the experimental procedure mentioned above.
As the results of Tables C1-C12 show, compounds no.

Setaria viridis (SETVI) = assay: Herbicidal pre-emergence action, test C (Table C4); conditions: visual scoring after about 3 weeks, 100% = plants have died, 0% = like control plants
Excerpt: as §1

Stellaria media (STEME) [8] = assay: Herbicidal post-emergence action (Table B8); conditions: dosage 1280 g/ha; visual rating about 3 weeks after treatment; 100% = plants have died, 0% = like control plants
Description: as §2

[9] = test system: Amaranthus retroflexus (AMARE); assay: Herbicidal pre-emergence action, test C (Table C6); conditions: visual scoring after about 3 weeks, 100% = plants have died, 0% = like control plants
Excerpt: as §1

[10] = test system: Amaranthus retroflexus (AMARE); assay: Herbicidal post-emergence action (Table B6); conditions: visual rating about 3 weeks after treatment, 100% = plants have died, 0% = like control plants
Description: as §2

Poa annua (POAAN) [11] = assay: Herbicidal post-emergence action (Table B3); conditions: rated visually after about 3 weeks, 100% = plants have died, 0% = like control plants
Description: as §2

[12] = test system: Abutilon theophrasti (ABUTH); assay: Herbicidal post-emergence action (Table B5); conditions: 1280 g/ha; rated visually after about 3 weeks; 100% = plants have died, 0% = like control plants
Description: as §2

Cc1ccc(-c2cc(C(F)F)no2)c(Oc2ncccc2F)c1 [Example 1-33]
Pre-emergence action against Stellaria media (STEME) (Stellaria media (STEME) [1]; dosage 320 g/ha): 90%
Pre-emergence action against Stellaria media (STEME) (Stellaria media (STEME) [1]; dosage 1280 g/ha): 100%
Post-emergence action against Veronica persica (VERPE) (Veronica persica (VERPE) [2]; dosage 320 g/ha): 90%
Post-emergence action against Veronica persica (VERPE) (Veronica persica (VERPE) [2]; dosage 1280 g/ha): 100%
Pre-emergence action against Poa annua (POAAN) (Poa annua (POAAN) [3]): 90%
herbicidal activity against the harmful plants of Tables B1-B12 in post-emergence treatment [4]: very good herbicidal activity
Pre-emergence action against Veronica persica (VERPE) (Veronica persica (VERPE) [5]): 90%
Pre-emergence action against Abutilon theophrasti (ABUTH) [6]: 90%
herbicidal activity against the harmful plants of Tables C1-C12 in pre-emergence treatment [7]: very good herbicidal activity
Pre-emergence action against Setaria viridis (SETVI) (Setaria viridis (SETVI); dosage 1280 g/ha): 100%

Fc1cccc(Oc2ncc(Cl)cc2Cl)c1-c1cc(C(F)(F)F)on1 [Example 1-4]
herbicidal activity against the harmful plants of Tables B1-B12 in post-emergence treatment [4]: very good herbicidal activity
Post-emergence action against Stellaria media (STEME) (Stellaria media (STEME) [8]): 100%
herbicidal activity against the harmful plants of Tables C1-C12 in pre-emergence treatment [7]: very good herbicidal activity
Pre-emergence action against Amaranthus retroflexus (AMARE) ([9]; dosage 1280 g/ha): 90%

Cc1ccc(-c2cc(C(F)F)no2)c(Oc2ncc(Cl)cc2Cl)c1 [Example 1-28]
Pre-emergence action against Stellaria media (STEME) (Stellaria media (STEME) [1]; dosage 1280 g/ha): 90%
Post-emergence action against Veronica persica (VERPE) (Veronica persica (VERPE) [2]; dosage 1280 g/ha): 90%
herbicidal activity against the harmful plants of Tables B1-B12 in post-emergence treatment [4]: very good herbicidal activity
Post-emergence action against Stellaria media (STEME) (Stellaria media (STEME) [8]): 100%
herbicidal activity against the harmful plants of Tables C1-C12 in pre-emergence treatment [7]: very good herbicidal activity
Pre-emergence action against Setaria viridis (SETVI) (Setaria viridis (SETVI); dosage 320 g/ha): 90%
Pre-emergence action against Setaria viridis (SETVI) (Setaria viridis (SETVI); dosage 1280 g/ha): 90%
Post-emergence action against Amaranthus retroflexus (AMARE) ([10]; dosage 320 g/ha): 90%
Post-emergence action against Amaranthus retroflexus (AMARE) ([10]; dosage 1280 g/ha): 100%
Post-emergence action against Poa annua (POAAN) (Poa annua (POAAN) [11]; 1280 g/ha): 90%

Fc1cccc(Oc2ncc(C(F)(F)F)cc2Cl)c1-c1cc(C(F)F)no1 [Example 1-22]
Pre-emergence action against Stellaria media (STEME) (Stellaria media (STEME) [1]; dosage 320 g/ha): 90%
Pre-emergence action against Stellaria media (STEME) (Stellaria media (STEME) [1]; dosage 1280 g/ha): 100%
Pre-emergence action against Poa annua (POAAN) (Poa annua (POAAN) [3]): 100%
herbicidal activity against the harmful plants of Tables B1-B12 in post-emergence treatment [4]: very good herbicidal activity
Post-emergence action against Abutilon theophrasti (ABUTH) [12]: 100%
herbicidal activity against the harmful plants of Tables C1-C12 in pre-emergence treatment [7]: very good herbicidal activity
Pre-emergence action against Setaria viridis (SETVI) (Setaria viridis (SETVI); dosage 1280 g/ha): 90%
Pre-emergence action against Amaranthus retroflexus (AMARE) ([9]; dosage 1280 g/ha): 100%
Post-emergence action against Poa annua (POAAN) (Poa annua (POAAN) [11]; 320 g/ha): 100%
Post-emergence action against Poa annua (POAAN) (Poa annua (POAAN) [11]; 1280 g/ha): 100%

Cn1nc(-c2cc(F)ccc2Oc2ccc(Cl)cn2)cc1C(F)F [Example 1-65]
Post-emergence action against Veronica persica (VERPE) (Veronica persica (VERPE) [2]; dosage 320 g/ha): 100%
Post-emergence action against Veronica persica (VERPE) (Veronica persica (VERPE) [2]; dosage 1280 g/ha): 100%
Pre-emergence action against Poa annua (POAAN) (Poa annua (POAAN) [3]): 100%
herbicidal activity against the harmful plants of Tables B1-B12 in post-emergence treatment [4]: very good herbicidal activity
herbicidal activity against the harmful plants of Tables C1-C12 in pre-emergence treatment [7]: very good herbicidal activity
Pre-emergence action against Amaranthus retroflexus (AMARE) ([9]; dosage 320 g/ha): 90%
Pre-emergence action against Amaranthus retroflexus (AMARE) ([9]; dosage 1280 g/ha): 100%
Post-emergence action against Amaranthus retroflexus (AMARE) ([10]; dosage 320 g/ha): 100%
Post-emergence action against Amaranthus retroflexus (AMARE) ([10]; dosage 1280 g/ha): 100%
